Where two headings read alike, the source gives them in different places.
Assays:
platelet aggregation = experiment: Collagen-induced platelet aggregation ex vivo; format: in vivo, rat
Normolipemic rats [1] = experiment: Hypolipemic activity in normolipemic rats; format: in vivo, rat (Sprague Dawley Nos male rats); conditions: for hypolipemic activity (in words) / CHOL-HDL (in words) / serum TG (in words): oral
in vivo = conditions: mouse, po
Normolipemic rats [2] = conditions: "as known"; cited from earlier work
[3] = biological target: T1, alpha2-adrenergic receptors (Rattus norvegicus, UniProt P22909); conditions: (a) Qian et al. 1983 for Tibalosine; (b) Van Zwieten et al. 1985 for Urapidil; cited from earlier work
T1 construct: from tissue; host or cells: rat brain membranes
T1 sequence (P22909 1-465): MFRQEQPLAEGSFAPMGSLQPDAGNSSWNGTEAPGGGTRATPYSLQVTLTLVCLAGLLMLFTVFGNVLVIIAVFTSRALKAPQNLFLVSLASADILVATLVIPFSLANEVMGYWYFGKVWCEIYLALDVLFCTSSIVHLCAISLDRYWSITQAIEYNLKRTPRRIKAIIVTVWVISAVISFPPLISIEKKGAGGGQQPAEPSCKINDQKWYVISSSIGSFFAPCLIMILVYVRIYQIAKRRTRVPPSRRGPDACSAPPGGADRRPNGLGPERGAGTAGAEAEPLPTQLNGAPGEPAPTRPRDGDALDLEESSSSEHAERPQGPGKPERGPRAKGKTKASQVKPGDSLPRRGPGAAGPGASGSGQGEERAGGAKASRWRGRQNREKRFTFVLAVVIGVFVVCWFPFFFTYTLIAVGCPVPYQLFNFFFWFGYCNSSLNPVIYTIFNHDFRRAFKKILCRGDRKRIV

[4] = biological target: alpha1-adrenergic receptors; conditions: (a) Qian et al. 1983 for Tibalosine; (b) Van Zwieten et al. 1985 for Urapidil; cited from earlier work
[5] = tested on: SH rats (spontaneously hypertensive rats); experiment: Anti-hypertensive activity in spontaneously hypertensive rats, tail artery plethysmography; format: in vivo, rat; conditions: SHR
Experimental: The anti-hypertensive activity was tested on groups of 5 SH rats (spontaneously hypertensive rats) weighing 200±10 g, fasting for 18 hrs and treated orally with the invention compounds suspended in 2.5% gum arabic.
Changes in blood pressure (mm Hg) before (T=0) and after treatment (2, 4 and 6 hrs) were measured according to the method of tail artery plethysmography reported in "Spontaneously hypertensive rats (SHR): Guidlines for breeding, care and use", SHR Conference, 1976, page 11.
The arterial pressure before the treatment was 210±10 mmHg.

male mice [6] = experiment: Anti-hypoxic activity (gasping time after decapitation); format: in vivo; conditions: Mus musculus, po, read-out: Gasping time, % diff. from control
toxic adrenaline doses = experiment: animal or person; format: in vivo, mouse (male mice CrI:CD 1(CR) BR); conditions: Mus musculus, po, 24 h, read-out: PD50 (50% protective dose)
male mice [7] = conditions: mouse, in vivo, po
[8] = 0.15 mM/kg oral, blood 1 hr after treatment, collagen 2-4 mcg/ml
[9] = 100 mg/kg/p.o., pretreatment 90 min

## COc1ccc2cc(C(O)C(C)N3CCN(C(=O)C=Cc4cc(OC)c(OC)c(OC)c4)CC3)ccc2c1 (stereo not shown) [MG 28472, 2-[4-(1-Oxo-3-(3,4,5-trimethoxyphenyl)-2-propenyl)-1-piperazinyl]-1-(6-methoxy-2-naphthyl)-propanol]
Platelet aggregation; [8]
  % Inhibition, Aggregation rate: 65.3%
  % Inhibition, Maximum aggregation: 75.7%

## COc1ccc2cc(C(O)C(C)N3CCC(NC(=O)c4ccccc4)CC3)ccc2c1 (stereo not shown) [MG 38105, 2-(4-Benzamido-1-piperidinyl)-1-(6-methoxy-2-naphthyl)-propanol]
Normolipemic rats [1]; 0.023 mM/kg/p.o. × 4 days
  CHOL, % different from control: -35.7%
  CHOL-HDL, % different from control: -13.3%
  Liver Weight, % different from control: +5.5%
  TG, % different from control: -36.2%
Normolipemic rats [1]; 0.046 mM/kg/p.o. × 4 days
  CHOL, % different from control: -45.8%
  CHOL-HDL, % different from control: +1.3%
  Liver Weight, % different from control: +8.0%
  TG, % different from control: -63.8%
Normolipemic rats [1]; 0.185 mM/kg/p.o. × 4 days
  CHOL, % different from control: -96.6%
  CHOL-HDL, % different from control: +3.9%
  Liver Weight, % different from control: +4.8%
  TG, % different from control: -70.6%
Normolipemic rats [1]
  hypolipemic activity (in words): good activity at very low doses

## COc1ccc2cc(C(O)C(C)N3CCN(c4ccccc4)CC3)ccc2c1 (stereo not shown) [MG 38068, 2-(4-Phenyl-1-piperazinyl)-1-(6-methoxy-2-naphthyl)-propanol]
Platelet aggregation; [8]
  % Inhibition, Aggregation rate: 54.4%
  % Inhibition, Maximum aggregation: 58.8%
Normolipemic rats [1]; 0.185 mM/kg/p.o. × 4 days
  CHOL, % different from control: -3.7%
  CHOL-HDL, % different from control: +5.0%
  Liver Weight, % different from control: +2.6%
  TG, % different from control: -45.0%
Normolipemic rats [1]; 0.37 mM/kg/p.o. × 4 days
  CHOL, % different from control: -21.8%
  CHOL-HDL, % different from control: +32.9%
  Liver Weight, % different from control: +0.3%
  TG, % different from control: -56.9%
Normolipemic rats [1]
  CHOL-HDL (in words): increase of CHOL-HDL
  serum TG (in words): significative decrease of serum TG
In vivo
  LD50: > 1000 mg/kg

## CCOC(=O)C(C)(C)Oc1ccc(Cl)cc1 [Clofibrate, reference compound]
Normolipemic rats [1]; 0.82 mM/kg/p.o. × 4 days
  CHOL, % different from control: -15.0%
  CHOL-HDL, % different from control: 0%
  Liver Weight, % different from control: +19.5%
  TG, % different from control: -40.0%
Normolipemic rats [2]
  liver increase (in words): significative liver increase

## COc1ccccc1N1CCN(CCCNc2cc(=O)n(C)c(=O)n2C)CC1 [Urapidil]
[3]
  IC50: 14 µM
[4]
  IC50: 0.8 µM
[5]; 1 mg/kg p.o.
  Max. changes in systolic pressure: -16 mmHg
[5]; 5 mg/kg p.o.
  Max. changes in systolic pressure: -47 mmHg
[5]; 15 mg/kg p.o.
  Max. changes in systolic pressure: -72.4 mmHg

## CC(C)(Sc1cc(C(C)(C)C)c(O)c(C(C)(C)C)c1)Sc1cc(C(C)(C)C)c(O)c(C(C)(C)C)c1 [Probucol, reference compound]
Normolipemic rats [1]; 0.205 mM/kg/p.o. × 8 days
  CHOL, % different from control: -25.0%
  CHOL-HDL, % different from control: -26%
  Liver Weight, % different from control: +4.0%
  TG, % different from control: -28.0%
Normolipemic rats [1]; 0.82 mM/kg/p.o. × 4 days
  CHOL, % different from control: ~ 0%
  CHOL-HDL, % different from control: +18.5%
  Liver Weight, % different from control: ~ 0%
  TG, % different from control: ~ 0%
Normolipemic rats [1]
  hypolipemic activity (in words): moderate and is noted only after prolonged treatment (8 days)

## CCCCCCCCNC(C)C(O)c1ccc2cc(OC)ccc2c1 (stereo not shown) [MG 38077]
Male mice [6]; [9]
  change in vivo at 100 mg/kg: 71%

## Cc1ccc(N(CC2=NCCN2)c2cccc(O)c2)cc1 [Phentolamine]
Toxic adrenaline doses
  ED50: 8 mg/kg

## CSc1ccc2cc(C(O)C(C)N3CCN(C(=O)c4ccco4)CC3)ccc2c1 (stereo not shown) [MG 28451, 2-[4-(2-Furoyl)-1-piperazinyl]-1-(6-methylthio-2-naphthyl)-propanol]
Normolipemic rats [1]; 0.37 mM/kg/p.o. × 4 days
  CHOL, % different from control: -13.5%
  CHOL-HDL, % different from control: +46.5%
  Liver Weight, % different from control: +9.2%
  TG, % different from control: -48.2%
Normolipemic rats [1]
  CHOL-HDL (in words): increase of CHOL-HDL
  serum TG (in words): significative decrease of serum TG
In vivo
  LD50: > 1000 mg/kg

## COc1ccc2cc(C(O)C(C)N3CCC(NC(=O)c4ccccc4)CC3)ccc2c1 (stereo not shown) [MG 38127, 2-(4-Benzamido-1-piperidinyl)-1-(6-methoxy-2-naphthyl)-propanol]
Normolipemic rats [1]; 0.023 mM/kg/p.o. × 4 days
  CHOL, % different from control: -30.2%
  CHOL-HDL, % different from control: +7.6%
  Liver Weight, % different from control: -1.6%
  TG, % different from control: -41.4%
Normolipemic rats [1]; 0.046 mM/kg/p.o. × 4 days
  CHOL, % different from control: -51.2%
  CHOL-HDL, % different from control: -1.8%
  Liver Weight, % different from control: +8.6%
  TG, % different from control: -66.3%
Normolipemic rats [1]; 0.185 mM/kg/p.o. × 4 days
  CHOL, % different from control: -59.1%
  CHOL-HDL, % different from control: -19.8%
  Liver Weight, % different from control: +3.3%
  TG, % different from control: -81.7%
Normolipemic rats [1]
  hypolipemic activity (in words): good activity at very low doses

## COc1ccc2cc(C(O)C(C)N3CCN(C(=O)c4ccco4)CC3)ccc2c1 (stereo not shown) [MG 38078, 2-[4-(2-Furoyl)-1-piperazinyl]-1-(6-methoxy-2-naphthyl)-propanol]
Platelet aggregation; [8]
  % Inhibition, Aggregation rate: 64.0%
  % Inhibition, Maximum aggregation: 70.4%
In vivo
  LD50: > 2000 mg/kg

## CC(NCCCCc1ccccc1)C(O)c1ccc2c(c1)CCS2 (stereo not shown) [Tibalosine]
[3]
  IC50: 1000 µM
[4]
  IC50: 0.4 µM
[5]; 1 mg/kg p.o.
  Max. changes in systolic pressure: ~ 0 mmHg
[5]; 5 mg/kg p.o.
  Max. changes in systolic pressure: -13.2 mmHg
[5]; 15 mg/kg p.o.
  Max. changes in systolic pressure: -67 mmHg

## COc1cc2nc(N3CCN(C(=O)c4ccco4)CC3)nc(N)c2cc1OC [Prazosin]
Toxic adrenaline doses
  ED50: 0.7 mg/kg

## O=C1C(CC[S+]([O-])c2ccccc2)C(=O)N(c2ccccc2)N1c1ccccc1 (stereo not shown) [Sulfinpyrazone, reference compound]
Platelet aggregation; rat, in vivo, po
  % Inhibition, Aggregation rate: 89.0%
  % Inhibition, Maximum aggregation: 92.5%

## CCCCCCCCNC(C)C(O)c1ccc(SC(C)C)cc1 (stereo not shown) [Suloctidil, reference compound]
Platelet aggregation; [8]
  % Inhibition, Aggregation rate: 57.5%
  % Inhibition, Maximum aggregation: 69.0%
Male mice [6]; 100 mg/kg/p.o., pretreatment 45 min
  change in vivo at 100 mg/kg: 27.5%
Male mice [6]; [9]
  change in vivo at 100 mg/kg: 11.7%

## Clc1ccccc1CN1CCc2sccc2C1 [Ticlopidine, reference compound]
Platelet aggregation; [8]
  % Inhibition, Aggregation rate: 56.0%
  % Inhibition, Maximum aggregation: 70.0%

## CSc1ccc2cc(C(O)C(C)N3CCN(C(=O)c4cccnc4)CC3)ccc2c1 (stereo not shown) [MG 28453, 2-[4-(3-Pyridinylcarbonyl)-1-piperazinyl]-1-(6-methylthio-2-naphthyl)-propanol]
Normolipemic rats [1]; 0.185 mM/kg/p.o. × 4 days
  CHOL, % different from control: +8.5%
  CHOL-HDL, % different from control: +45.2%
  Liver Weight, % different from control: +2.8%
  TG, % different from control: -36.4%
Normolipemic rats [1]; 0.37 mM/kg/p.o. × 4 days
  CHOL, % different from control: -26.9%
  CHOL-HDL, % different from control: +31.7%
  Liver Weight, % different from control: +21.6%
  TG, % different from control: -75.4%
Normolipemic rats [1]
  CHOL-HDL (in words): increase of CHOL-HDL
  serum TG (in words): significative decrease of serum TG

## COc1ccc2cc(C(O)C(C)N3CCN(c4ccccc4)CC3)ccc2c1 (stereo not shown) [MG 38088, 2-(4-Phenyl-1-piperazinyl)-1-(6-methoxy-2-naphthyl)-propanol]
Platelet aggregation; [8]
  % Inhibition, Aggregation rate: 75.1%
  % Inhibition, Maximum aggregation: 68.6%
Normolipemic rats [1]; 0.185 mM/kg/p.o. × 4 days
  CHOL, % different from control: -35.1%
  CHOL-HDL, % different from control: -9.1%
  Liver Weight, % different from control: 0%
  TG, % different from control: -70.5%
Normolipemic rats [1]; 0.37 mM/kg/p.o. × 4 days
  CHOL, % different from control: -41.3%
  CHOL-HDL, % different from control: +5.4%
  Liver Weight, % different from control: +3.4%
  TG, % different from control: -68.5%
Toxic adrenaline doses
  ED50: 13.5 mg/kg
Male mice [7]
  LD50: higher than 1000 mg/kg
Male mice [6]
  change in vivo at 100 mg/kg: 46.8%

## COc1ccc2cc(C(O)C(C)N3CCN(c4ccccc4OC)CC3)ccc2c1 (stereo not drawn) [MG 38098, threo-2-[4-(2-Methoxyphenyl)-1-piperazinyl]-1-(6-methoxy-2-naphthyl)-propanol]
Male mice [6]; [9]
  change in vivo at 100 mg/kg: 41.1%

## Fc1ccc(C(c2ccc(F)cc2)N2CCN(C/C=C/c3ccccc3)CC2)cc1 [Flunarizine, reference compound]
Male mice [6]; 50 mg/kg/p.o., pretreatment 90 min
  change in vivo at 50 mg/kg: 68.7%

## COc1ccc2cc(C(O)C(C)N3CCN(C(=O)C=Cc4ccccc4)CC3)ccc2c1 (stereo not shown) [MG 38071, 2-[4-(1-Oxo-3-phenyl-2-propenyl)-1-piperazinyl]-1-(6-methoxy-2-naphthyl)-propanol]
Male mice [6]; [9]
  change in vivo at 100 mg/kg: 32.7%
